Structures can show the parent of a compound that is named as a salt. Where two headings read alike, the source gives them in different places.
Molecular target: T1, ABCG2 (Homo sapiens, UniProt Q9UNQ0)
T1 sequence (Q9UNQ0 1-655): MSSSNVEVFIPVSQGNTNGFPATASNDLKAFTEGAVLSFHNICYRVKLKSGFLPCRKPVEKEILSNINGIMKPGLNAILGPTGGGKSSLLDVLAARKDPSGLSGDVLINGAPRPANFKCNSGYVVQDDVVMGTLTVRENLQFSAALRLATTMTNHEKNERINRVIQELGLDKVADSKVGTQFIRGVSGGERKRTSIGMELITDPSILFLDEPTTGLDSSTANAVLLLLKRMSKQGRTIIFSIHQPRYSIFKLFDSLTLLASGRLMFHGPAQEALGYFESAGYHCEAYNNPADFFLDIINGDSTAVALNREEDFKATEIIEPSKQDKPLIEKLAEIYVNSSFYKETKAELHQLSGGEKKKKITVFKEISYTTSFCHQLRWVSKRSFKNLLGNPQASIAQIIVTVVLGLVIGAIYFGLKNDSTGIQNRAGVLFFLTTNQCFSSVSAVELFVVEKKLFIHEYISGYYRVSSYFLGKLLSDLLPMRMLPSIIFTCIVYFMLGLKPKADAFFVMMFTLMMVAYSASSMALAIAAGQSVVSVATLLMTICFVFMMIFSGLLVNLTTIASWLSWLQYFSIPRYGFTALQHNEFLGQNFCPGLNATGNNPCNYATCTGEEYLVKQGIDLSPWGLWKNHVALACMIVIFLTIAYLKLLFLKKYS
Test: Bioluminescence imaging (BLI) assay in HEK293/ABCG2/fLuc cells
Description: HEK293/ABCG2/fLuc cells were plated into 96-well plates at a density of 4×10^4 cells/100 μL per well and were allowed to attach overnight. The following day, 10 μL of each compound or the control solvent was transferred from a compound library in a 96-well, high-throughput format into the wells using a multichannel pipette. […] Images were taken every 5 minutes for ˜1 h. Light output from each well was quantified at the 40 min time point after initiation of imaging, and the signal-to-background (S/B) ratio of the light output from each compound divided by that from the control well was calculated. This S/B ratio serves as an indicator of the potency of ABCG2 inhibition, the mechanism by which BLI signal is enhanced.
Images were taken every 5 min for ˜1 h, and light output from each well at the 40 min time point was chosen for quantification. The SB ratio of the light output from each compound divided by that from the control well was calculated. This ratio was used as an indicator of the potency of ABCG2 inhibition, the mechanism by which BLI signal is enhanced.
The BLI signal-enhancing effect of selected ABCG2 inhibitors was evaluated within the range of 0.001 μM-100 μM, with HEK293/ABCG2/fLuc cells and 50 μg/mL D-luciferin. The data obtained at 40 min after imaging commencement were chosen arbitrarily to be plotted (FIG. 3).

[1] = Table 2, HEK293/ABCG2/fLuc cells, compound approximately 17 μM, ~50 μg/mL D-luciferin, 40 min time point
[2] = Table 4, approximately 17 μM, 40 min time point

Compound: C=C1CC[C@H](O)C/C1=C/C=C1\CCC[C@]2(C)[C@@H]([C@H](C)CCCC(C)(C)O)CC[C@@H]12 [calcifediol]
- Fold (BLI enhancement, S/B ratio over control) (human, 40 min, 17 μM): 3.2 fold

Compound: OCCN(CCO)c1nc(N2CCCCC2)c2nc(N(CCO)CCO)nc(N3CCCCC3)c2n1 [dipyridamole]
- Fold (BLI enhancement), known compounds (human, 40 min, 17 μM): 7.1 fold
- Fold (BLI enhancement, S/B ratio over control) (human, 40 min, 17 μM): 7.1 fold
- fold (BLI enhancement), additional previously known ABCG2 inhibitors (human, 40 min, 17 μM): 7.1 fold

Compound: COc1ccc2cc3[n+](cc2c1OC)CCc1cc2c(cc1-3)OCO2.O=S(=O)([O-])O [berberine bisulfate]
- Fold (BLI enhancement, S/B ratio over control) [1]: 2.2 fold

Compound: C[C@]12CC[C@@H]3c4ccc(O)cc4CC[C@H]3[C@@H]1CC[C@@H]2OC(=O)CCC1CCCC1 [estradiol cypionate]
- Fold (BLI enhancement, S/B ratio over control) [1]: 3.6 fold

Compound: Nc1c2ccccc2nc2ccccc12 [aminacrine]
- Fold (BLI enhancement, S/B ratio over control) (human, 40 min, 17 μM): 2.9 fold

Compound: COC(=O)[C@H]1[C@H]2C[C@@H]3c4[nH]c5cc(OC)ccc5c4CCN3C[C@H]2C[C@@H](OC(=O)c2cc(OC)c(OC)c(OC)c2)[C@@H]1OC [reserpine]
- Fold (BLI enhancement), known compounds (human, 40 min, 17 μM): 5.4 fold
- Fold (BLI enhancement, S/B ratio over control) (human, 40 min, 17 μM): 5.4 fold

Compound: CC(=O)Oc1ccc2c(c1)CCC1C2CC[C@]2(C)C(=O)CCC12 (stereo partly shown) [estrone acetate]
- Fold (BLI enhancement, S/B ratio over control) (human, 40 min, 17 μM): 4.1 fold

Compound: O=C(O)c1cc(O)c2c(c1)C(=O)c1cccc(O)c1C2=O [rhein]
- Fold (BLI enhancement, S/B ratio over control) (human, 40 min, 17 μM): 3.1 fold

Compound: CC[C@@H](C(=O)[C@@H](C)[C@@H](O)[C@H](C)CCc1ccc(C)c(O)c1C(=O)O)[C@H]1O[C@](CC)([C@H]2CC[C@](O)(CC)[C@H](C)O2)C[C@@H]1C [lasalocid sodium]
- Fold (BLI enhancement, S/B ratio over control) (human): 2.7 fold

Compound: ivermect n
- Fold (BLI enhancement, S/B ratio over control) [1]: 4.3 fold

Compound: COC(=O)Nc1nc2ccc([S+]([O-])c3ccccc3)cc2[nH]1 (stereo not shown) [oxfendazole]
- Fold (BLI enhancement, S/B ratio over control) (human, 40 min, 17 μM): 2.1 fold

Compound: CCc1nn(CCCN2CCN(c3cccc(Cl)c3)CC2)c(=O)n1CCOc1ccccc1 [nefazodone hydrochloride]
- Fold (BLI enhancement, S/B ratio over control) (human, 40 min, 17 μM): 2.6 fold

Compound: COc1ccccc1OCCNCC(O)COc1cccc2[nH]c3ccccc3c12 (stereo not shown) [carvedilol]
- Fold (BLI enhancement, S/B ratio over control) (human, 40 min, 17 μM): 10.0 fold

Compound: Cc1ccc(-c2cc(C(F)(F)F)nn2-c2ccc(S(N)(=O)=O)cc2)cc1 [celecoxib]
- Fold (BLI enhancement, S/B ratio over control) (human, 40 min, 17 μM): 2.2 fold

Compound: COC(=O)C1=C(C)NC(C)=C(C(=O)OCC(C)C)C1c1ccccc1[N+](=O)[O-] (stereo not shown) [nisoldipine]
- Fold (BLI enhancement, S/B ratio over control) (human, 40 min, 17 μM): 3.2 fold

Compound: CC1(C)O[C@@H]2C[C@H]3[C@@H]4CCC5=CC(=O)CC[C@]5(C)[C@@]4(F)[C@@H](O)C[C@]3(C)[C@]2(C(=O)CCl)O1 [halcinonide]
- Fold (BLI enhancement, S/B ratio over control) (human, 40 min, 17 μM): 2.2 fold

Compound: COc1ccc(-c2cc(=O)c3c(O)c(OC)c(OC)cc3o2)cc1O [eupatorin]
- Fold (BLI enhancement), previously unknown compounds (human, 40 min, 17 μM): 5.6 fold
- Fold (BLI enhancement, S/B ratio over control) (human, 40 min, 17 μM): 5.6 fold

Compound: CCC(=O)O[C@H]1CC[C@H]2[C@@H]3CCc4cc(O)ccc4[C@H]3CC[C@]12C [estradiol propionate]
- Fold (BLI enhancement, S/B ratio over control) (human, 40 min, 17 μM): 2.6 fold

Compound: COc1ccccc1N1CCN(CC(O)COc2cccc3ccccc23)CC1 (stereo not shown) [naftopidil]
- Fold (BLI enhancement, S/B ratio over control) (human, 40 min, 17 μM): 2.4 fold

Compound: CCc1c2c(nc3ccc(OC(=O)N4CCC(N5CCCCC5)CC4)cc13)-c1cc3c(c(=O)n1C2)COC(=O)[C@]3(O)CC [irinotecan hydrochloride]
- Fold (BLI enhancement, S/B ratio over control) (human, 40 min, 17 μM): 4.0 fold

Compound: CCCc1nc(C)c2c(=O)[nH]c(-c3cc(S(=O)(=O)N4CCN(CC)CC4)ccc3OCC)nn12 [vardenafil]
- Fold (BLI enhancement, S/B ratio over control) (human, 40 min, 17 μM): 3.3 fold

Compound: CSc1ccc2c(c1)N(CCC1CCCCN1C)c1ccccc1S2 (stereo not shown) [th oridaz ne]
- Fold (BLI enhancement, S/B ratio over control) [1]: 2.5 fold

Compound: Fc1ccc(C(c2ccc(F)cc2)N2CCN(C/C=C/c3ccccc3)CC2)cc1 [flunarizine hydrochloride]
- Fold (BLI enhancement, S/B ratio over control) (human, 40 min, 17 μM): 2.9 fold

Compound: CC[C@H]1/C=C/C=C/C[C@@H](C)[C@H](O)[C@@](C)(O)C(=O)[C@@H](C)[C@H](O)[C@@H](C)C(=O)[C@@H](C)[C@H](O)[C@@H](C)/C=C/C(=O)O[C@@H]2[C@H](C)[C@H](CC1)O[C@]1(CC[C@H](C)[C@H](C[C@@H](C)O)O1)[C@H]2C [oligomycin]
- Fold (BLI enhancement, S/B ratio over control) [1]: 5.0 fold
- Fold (BLI enhancement), previously unknown compounds [2]: 5.0 fold

Compound: OCCN1CCN(CCCN2c3ccccc3Sc3ccc(C(F)(F)F)cc32)CC1 [fluphenazine]
- Fold (BLI enhancement, S/B ratio over control) (human, 40 min, 17 μM): 2.0 fold

Compound: Cl.Cl.OCCN1CCN(CCCN2c3ccccc3Sc3ccc(C(F)(F)F)cc32)CC1 [flufenazine hydrochloride]
- Fold (BLI enhancement, S/B ratio over control): 4.3 fold

Compound: O=c1[nH]c2ccccc2n1CCCN1CCC(n2c(=O)[nH]c3cc(Cl)ccc32)CC1 [domperidone]
- Fold (BLI enhancement, S/B ratio over control) (human, 40 min, 17 μM): 2.5 fold

Compound: COc1cc2ncnc(Nc3ccc(F)c(Cl)c3)c2cc1OCCCN1CCOCC1 [gefitinib]
- Fold (BLI enhancement), known compounds (human, 40 min, 17 μM): 19.0 fold
- Fold (BLI enhancement, S/B ratio over control) (human, 40 min, 17 μM): 19.0 fold

Compound: COc1ccc(/C=C/C(=O)c2ccc(OC)cc2OC)cc1 [metochalcone]
- Fold (BLI enhancement, S/B ratio over control) (human, 40 min, 17 μM): 2.8 fold

Compound: CC[C@@]1(O)C[C@H](O[C@H]2C[C@H](N(C)C)[C@H](O[C@H]3C[C@H](O)[C@H](O[C@H]4CCC(=O)[C@H](C)O4)[C@H](C)O3)[C@H](C)O2)c2c(cc3c(c2O)C(=O)c2c(O)cccc2C3=O)[C@H]1C(=O)OC [aclarubicin]
- Fold (BLI enhancement, S/B ratio over control) (human): 3.5 fold

Compound: COc1ccc(CCN2CCC(Nc3nc4ccccc4n3Cc3ccc(F)cc3)CC2)cc1 [astemizole]
- Fold (BLI enhancement, S/B ratio over control) (human, 40 min, 17 μM): 2.8 fold

Compound: CCC(C)(C)C(=O)O[C@H]1C[C@@H](C)C=C2C=C[C@H](C)[C@H](CC[C@@H]3C[C@@H](O)CC(=O)O3)[C@H]21 [simvastatin]
- Fold (BLI enhancement, S/B ratio over control) (human, 40 min, 17 μM): 2.7 fold

Compound: CCCC(=O)O[C@]1(C(=O)COC(C)=O)CC[C@H]2[C@@H]3C[C@H](F)C4=CC(=O)C=C[C@]4(C)[C@@]3(F)[C@@H](O)C[C@@]21C [difluprednate]
- Fold (BLI enhancement, S/B ratio over control) (human, 40 min, 17 μM): 2.0 fold

Compound: COc1ccc2c3c([nH]c2c1)C(C)=NCC3 [harmaline]
- Fold (BLI enhancement, S/B ratio over control) [1]: 8.8 fold
- Fold (BLI enhancement), previously unknown compounds [2]: 8.8 fold

Compound: CO[C@]12C[C@@H](COC(=O)c3cncc(Br)c3)CN(C)[C@@H]1Cc1cn(C)c3cccc2c13 [nicergoline]
- Fold (BLI enhancement, S/B ratio over control) (human, 40 min, 17 μM): 2.0 fold

Compound: CN1CCCN=C1/C=C/c1cccs1 [pyrantel]
- Fold (BLI enhancement, S/B ratio over control) (human, 40 min, 17 μM): 3.9 fold

Compound: COc1ccc2cc1Oc1ccc(cc1)C[C@H]1c3c(cc4c(c3Oc3cc5c(cc3OC)CCN(C)[C@@H]5C2)OCO4)CCN1C [cepharanthine]
- Fold (BLI enhancement, S/B ratio over control) (human, 40 min, 17 μM): 2.1 fold

Compound: CN1[C@@H]2CC[C@H]1C[C@@H](OC(c1ccccc1)c1ccccc1)C2.CS(=O)(=O)O [benztropin Methane-]
- Fold (BLI enhancement, S/B ratio over control) [1]: 2.0 fold

Compound: CCN(CC)CCNc1ccc(CO)c2sc3ccccc3c(=O)c12 [hycanthone]
- Fold (BLI enhancement, S/B ratio over control) (human, 40 min, 17 μM): 2.5 fold

Compound: CN1C2CCCC1CC(NC(=O)c1nn(C)c3ccccc13)C2 (stereo not shown) [granisetron hydrochloride]
- Fold (BLI enhancement, S/B ratio over control) (human, 40 min, 17 μM): 2.2 fold

Compound: CC(=O)[C@@]1(O)CC[C@H]2[C@@H]3C=C(Cl)C4=CC(=O)[C@@H]5C[C@@H]5[C@]4(C)[C@H]3CC[C@@]21C [cyproterone]
- Fold (BLI enhancement, S/B ratio over control) [1]: 2.0 fold

Compound: COc1cc(N)c(Cl)cc1C(=O)NC1CCN(Cc2ccccc2)CC1 [clebopride]
- Fold (BLI enhancement), previously unknown compounds (human, 40 min, 17 μM): 6.7 fold
- Fold (BLI enhancement, S/B ratio over control) (human, 40 min, 17 μM): 6.7 fold

Compound: COc1cc(/C=C/C(=O)CC(=O)/C=C/c2ccc(O)c(OC)c2)ccc1O [curcumin]
- Fold (BLI enhancement), known compounds (human, 40 min, 17 μM): 6.3 fold
- Fold (BLI enhancement, S/B ratio over control) (human, 40 min, 17 μM): 6.3 fold

Compound: O=C1CCc2cc(OCCCCc3nnnn3C3CCCCC3)ccc2N1 [cilostazol]
- Fold (BLI enhancement, S/B ratio over control) (human, 40 min, 17 μM): 3.8 fold

Compound: CC(=O)c1ccc2c(c1)N(CCCN1CCC(CCO)CC1)c1ccccc1S2 [piperacetazine]
- Fold (BLI enhancement), previously unknown compounds (human, 40 min, 17 μM): 5.8 fold
- Fold (BLI enhancement, S/B ratio over control) (human, 40 min, 17 μM): 5.8 fold

Compound: Cc1nccn1CC1CCc2c(c3ccccc3n2C)C1=O (stereo not shown) [ondansetron hydrochloride]
- Fold (BLI enhancement, S/B ratio over control) (human, 40 min, 17 μM): 2.7 fold

Compound: CCCCCCn1c(=O)c2c(ncn2C)n(C)c1=O [pentifylline]
- Fold (BLI enhancement, S/B ratio over control) (human, 40 min, 17 μM): 3.8 fold

Compound: Cn1c(=O)c2[nH]c(C3CCCC3)nc2n(C)c1=O [8-cyclopentyltheophylline]
- Fold (BLI enhancement, S/B ratio over control) (human, 40 min, 17 μM): 2.9 fold

Reference: patent US20150148256A1, “BIOLUMINESCENCE IMAGING-BASED SCREENING ASSAY AND INHIBITORS OF ABCG2” (THE JOHNS HOPKINS UNIVERSITY, priority 2008, published 2015)
